Laboratory results: the NIST ThermoML archive (doi:10.1021/je060203o)

Conditions: Liquid; for mass density: Vibrating tube method; for speed of sound: Pulse-echo method

CCCCCn1cc[n+](C)c1.O=S(=O)([N-]S(=O)(=O)C(F)(F)F)C(F)(F)F
Conditions	mass density [kg/m3]	speed of sound [m/s]
313.15 K, 25860 kPa	1409.15	–
313.15 K, 31480 kPa	1412.95	–
313.15 K, 37770 kPa	1417.13	–
313.15 K, 44170 kPa	1421.26	–
313.15 K, 50750 kPa	1425.48	–
313.15 K, 59590 kPa	1431.06	–
318.15 K, 100 kPa	1385.75	–
318.15 K, 500 kPa	–	1187.3
318.15 K, 1830 kPa	1387.09	–
318.15 K, 3500 kPa	–	1198.6
318.15 K, 7000 kPa	–	1211.5
318.15 K, 10000 kPa	–	1222.4
318.15 K, 10020 kPa	1393.29	–
318.15 K, 13500 kPa	–	1234.8
318.15 K, 14980 kPa	1396.9	–
318.15 K, 16990 kPa	–	1246.9
318.15 K, 19750 kPa	1400.31	–
318.15 K, 20000 kPa	–	1257
318.15 K, 25860 kPa	1404.59	–
318.15 K, 30000 kPa	–	1290
318.15 K, 31480 kPa	1408.43	–
318.15 K, 37770 kPa	1412.65	–
318.15 K, 40000 kPa	–	1321
318.15 K, 44170 kPa	1416.86	–
318.15 K, 50000 kPa	–	1350.2
318.15 K, 50750 kPa	1421.15	–
318.15 K, 59590 kPa	1426.81	–
318.15 K, 60000 kPa	–	1378.2
318.15 K, 70000 kPa	–	1404.9
318.15 K, 80000 kPa	–	1430.7
318.15 K, 90000 kPa	–	1455.5
318.15 K, 100000 kPa	–	1479.5
318.15 K, 112500 kPa	–	1508
318.15 K, 125000 kPa	–	1535.9
318.15 K, 137510 kPa	–	1562.6
318.15 K, 150000 kPa	–	1587.4
323.15 K, 100 kPa	1381.45	–
323.15 K, 1830 kPa	1382.69	–
323.15 K, 10020 kPa	1388.89	–
323.15 K, 14980 kPa	1392.55	–
323.15 K, 19750 kPa	1395.96	–
323.15 K, 25860 kPa	1400.22	–
323.15 K, 31480 kPa	1404.06	–
323.15 K, 37770 kPa	1408.3	–
323.15 K, 44170 kPa	1412.52	–
323.15 K, 50750 kPa	1416.77	–
323.15 K, 59590 kPa	1422.52	–
325.15 K, 100 kPa	1379.56	–
325.15 K, 1830 kPa	1380.89	–
325.15 K, 10020 kPa	1387.23	–
325.15 K, 14980 kPa	1390.89	–
325.15 K, 19750 kPa	1394.39	–
325.15 K, 25860 kPa	1398.72	–
325.15 K, 31480 kPa	1402.63	–
325.15 K, 37770 kPa	1406.92	–
325.15 K, 44170 kPa	1411.19	–
325.15 K, 50750 kPa	1415.51	–
325.15 K, 59590 kPa	1421.18	–
327.15 K, 100 kPa	1377.56	–
327.15 K, 1830 kPa	1378.86	–
327.15 K, 10020 kPa	1385.24	–
327.15 K, 14980 kPa	1388.96	–
327.15 K, 19750 kPa	1392.45	–
327.15 K, 25860 kPa	1396.84	–
327.15 K, 31480 kPa	1400.77	–
327.15 K, 37770 kPa	1405.12	–
327.15 K, 44170 kPa	1409.39	–
327.15 K, 50750 kPa	1413.81	–
327.15 K, 59590 kPa	1419.56	–
328.15 K, 500 kPa	–	1165.8
328.15 K, 3500 kPa	–	1177.4
328.15 K, 7000 kPa	–	1190.6
328.15 K, 10000 kPa	–	1201.8
328.15 K, 13500 kPa	–	1214.2
328.15 K, 16990 kPa	–	1226.6
328.15 K, 20000 kPa	–	1236.9
328.15 K, 30000 kPa	–	1270.5
328.15 K, 40000 kPa	–	1301.9
328.15 K, 50000 kPa	–	1331.7
328.15 K, 60000 kPa	–	1360.1
328.15 K, 70000 kPa	–	1387.2
328.15 K, 80000 kPa	–	1413.4
328.15 K, 90000 kPa	–	1438.4
328.15 K, 100000 kPa	–	1462.6
328.15 K, 112500 kPa	–	1491.6
328.15 K, 125000 kPa	–	1519.6
328.15 K, 137510 kPa	–	1546.6
328.15 K, 150000 kPa	–	1571.5
329.15 K, 100 kPa	1375.46	–
329.15 K, 1830 kPa	1376.78	–
329.15 K, 10020 kPa	1383.2	–
329.15 K, 14980 kPa	1386.93	–
329.15 K, 19750 kPa	1390.47	–
329.15 K, 25860 kPa	1394.89	–
329.15 K, 31480 kPa	1398.85	–
329.15 K, 37770 kPa	1403.2	–
329.15 K, 44170 kPa	1407.56	–
329.15 K, 50750 kPa	1411.94	–
329.15 K, 59590 kPa	1417.73	–
331.15 K, 100 kPa	1373.32	–
331.15 K, 1830 kPa	1374.64	–
331.15 K, 10020 kPa	1381.17	–
331.15 K, 14980 kPa	1384.96	–
331.15 K, 19750 kPa	1388.53	–
331.15 K, 25860 kPa	1392.98	–
331.15 K, 31480 kPa	1396.98	–
331.15 K, 37770 kPa	1401.34	–
331.15 K, 44170 kPa	1405.67	–
331.15 K, 50750 kPa	1410.08	–
331.15 K, 59590 kPa	1415.87	–
333.15 K, 100 kPa	1371	–
333.15 K, 1830 kPa	1372.46	–
333.15 K, 10020 kPa	1379.05	–
333.15 K, 14980 kPa	1382.89	–
333.15 K, 19750 kPa	1386.48	–
333.15 K, 25860 kPa	1390.95	–
333.15 K, 31480 kPa	1395.01	–
333.15 K, 37770 kPa	1399.42	–
333.15 K, 44170 kPa	1403.81	–
333.15 K, 50750 kPa	1408.2	–
333.15 K, 59590 kPa	1414.01	–
338.15 K, 500 kPa	–	1144.8
338.15 K, 3500 kPa	–	1156.5
338.15 K, 7000 kPa	–	1170
338.15 K, 10000 kPa	–	1181.4
338.15 K, 13500 kPa	–	1194.3
338.15 K, 16990 kPa	–	1206.7
338.15 K, 20000 kPa	–	1217.2
338.15 K, 30000 kPa	–	1251.3
338.15 K, 40000 kPa	–	1283.3
338.15 K, 50000 kPa	–	1313.6
338.15 K, 60000 kPa	–	1342.4
338.15 K, 70000 kPa	–	1369.8
338.15 K, 80000 kPa	–	1396.3
338.15 K, 90000 kPa	–	1421.6
338.15 K, 100000 kPa	–	1446.3
338.15 K, 112500 kPa	–	1475.3
338.15 K, 125000 kPa	–	1503.7
338.15 K, 137510 kPa	–	1530.9
338.15 K, 150000 kPa	–	1556.2
